The target of assay [1] is T1, human DLK (Homo sapiens (Human), UniProt Q12852). Put plainly: cell-based. The conditions noted are these: Table 2b (global); additional assay runs on multiple batches, includes Table 2a data in the averaging; p-cJun (Ser63), HEK293; read-out: Cell IC50.
Description: HEK293 cells stably transfected with a Dox-inducible human DLK were plated into a 384-well plate in 20 μl (40,000 cells/well) of DMEM medium (without phenol red) containing 10% fetal bovine serum, 1.5 μg/ml doxycycline and 1 μg/ml puromycin. The cells as negative control were grown in the absence of doxycycline. The plate was incubated at 37° C., 5% CO2 for 20 h, before DMSO (control) or compounds diluted in medium were added. The cells were incubated at 37° C. for an additional 5 h, followed by lysis and the addition detection antibodies from p-cJun (Ser63) cellular assay kit (Cisbio) per manufacturer protocol. The standard dose response curves were fitted by Genedata Screener software using the variable-slope model: Signal=Signalnegative control+(SignalDMSO control−Signalnegative control)/(1+(IC50/Dose)^Hill slope). Only signal and dose in the equation were treated as known values.
The target in assay [2] is T1, human DLK. Put plainly: biochemical. Format: binding. The conditions noted are these: Table 2b DLK activity (global); read-out: Kd.
Description: The DLK dissociation constants (Kd) have been determined in the KINOMEscan KdELECT Service at DiscoveRx.
A fusion protein of full length of human DLK (amino acids 1-859) and the DNA binding domain of NFkB was expressed in transiently transfected HEK293 cells. From these HEK 293 cells, extracts were prepared in M-PER extraction buffer (Pierce) in the presence of Protease Inhibitor Cocktail Complete (Roche) and Phosphatase Inhibitor Cocktail Set II (Merck) per manufacturers' instructions. The DLK fusion protein was labeled with a chimeric double-stranded DNA tag containing the NFkB binding site (5′-[sequence]-3′) fused to an amplicon for qPCR readout, which was added directly to the expression extract (the final concentration of DNA-tag in the binding reaction is 0.1 nM).
The liganded beads were blocked with excess biotin and washed with blocking buffer (SeaBlock (Pierce), 1% BSA, 0.05% Tween 20, 1 mM DTT) to remove unbound ligand and to reduce nonspecific binding.
Extracts were used directly in binding assays without any enzyme purification steps at a ≥10,000-fold overall stock dilution (final DNA-tagged enzyme concentration <0.1 nM). Extracts were loaded with DNA-tag and diluted into the binding reaction in a two step process. First extracts were diluted 1:100 in 1× binding buffer (PBS/0.05% Tween 20/10 mM DTT/0.1% BSA/2 μg/ml sonicated salmon sperm DNA) containing 10 nM DNA-tag. This dilution was allowed to equilibrate at room temperature for 15 minutes and then subsequently diluted 1:100 in 1× binding buffer. Test compounds were prepared as 111× stocks in 100% DMSO. Kds were determined using an 11-point 3-fold compound dilution series with three DMSO control points. […] The compounds were then diluted directly into the assays such that the final concentration of DMSO was 0.9%. All reactions performed in polypropylene 384-well plates. Each was a final volume of 0.02 mL. Assays were incubated with shaking for 1 hour at room temperature. Then the beads were pelleted and washed with wash buffer (1×PBS, 0.05% Tween 20) to remove displaced kinase and test compound. […] The kinase concentration in the eluates was measured by qPCR. qPCR reactions were assembled by adding 2.5 μL of kinase eluate to 7.5 μL of qPCR master mix containing 0.15 μM amplicon primers and 0.15 μM amplicon probe. The qPCR protocol consisted of a 10 minute hot start at 95° C., followed by 35 cycles of 95° C. for 15 seconds, 60° C. for 1 minute.
Test compounds were prepared as 11× stocks in 100% DMSO. Kds were determined using an 11-point 3-fold compound dilution series with three DMSO control points. […] The compounds were then diluted directly into the assays such that the final concentration of DMSO was 0.9%. The Kds were determined using a compound top concentration of 30,000 nM. Kd measurements were performed in duplicate.
Binding constants (Kds) were calculated with a standard dose-response curve using the Hill equation:
The Hill Slope was set to −1.

Molecules are shown by their SMILES.

As to `CCC(O)c1nc(-c2cnc(N)c(C(F)(F)F)c2)cn1C12CC(C1)C2` (stereo not drawn) [Example 61, 1-(4-(6-amino-5-(trifluoromethyl)pyridin-3-yl)-1-(bicyclo[1.1.1]pentan-1-yl)-1H-imidazol-2-yl)propan-1-ol], the IC50 on human DLK [1] stood at 167 nM. Besides, the Kd on human DLK [2] was found to be 2.1 nM.

In the case of `Nc1ncc(-c2cn(C34CC(C3)C4)c(CO)n2)cc1C(F)(F)F` [Example 58, (4-(6-amino-5-(trifluoromethyl)pyridin-3-yl)-1-(bicyclo[1.1.1]pentan-1-yl)-1H-imidazol-2-yl)methanol], the concentration for half-maximal inhibition (IC50) on human DLK [1] was 846 nM. Besides, the Kd at human DLK [2] stood at 18 nM.

Consider `CN1CCN(C23CC(n4cc(-c5cnc(N)c(OC(F)(F)F)c5)nc4CC4CC4)(C2)C3)CC1` [Example 72, 5-(2-(cyclopropylmethyl)-1-(3-(4-methylpiperazin-1-yl)bicyclo[1.1.1]pentan-1-yl)-1H-imidazol-4-yl)-3-(trifluoromethoxy)pyridin-2-amine], for which the IC50 at human DLK [1] was found to be 1160 nM. For the same compound, the Kd on human DLK [2] is 19 nM.

`Nc1ncc(-c2cn(C34CC(C3)C4)c([C@H](O)C(F)(F)F)n2)cc1C(F)(F)F` (single isomer, unassigned) [Example 6a]: the 50% inhibitory concentration (IC50) on human DLK [1] is 745 nM.

In the case of `C[C@H](O)c1nc(-c2cnc(N)c(C(F)(F)F)c2)cn1C12CC(C1)C2` [Example 33, (S)-1-(4-(6-amino-5-(trifluoromethyl)pyridin-3-yl)-1-(bicyclo[1.1.1]pentan-1-yl)-1H-imidazol-2-yl)ethan-1-ol], the IC50 on human DLK [1] is 207 nM. Further, on human DLK [2], the equilibrium dissociation constant (Kd) is 9.7 nM.

Turning to `Nc1ncc(-c2cn(C34CC(N5CCOCC5)(C3)C4)c(CC3CC3)n2)cc1OC(F)F` [Example 36, 5-(2-(cyclopropylmethyl)-1-(3-morpholinobicyclo[1.1.1]pentan-1-yl)-1H-imidazol-4-yl)-3-(difluoromethoxy)pyridin-2-amine], the IC50 on human DLK [1] was found to be 500 nM. Besides, the Kd at human DLK [2] stood at 22 nM.

As to `FC(F)(F)c1c[nH]c2ncc(-c3cn(C45CC(N6CCOCC6)(C4)C5)c(C4CC4)n3)cc12` [Example 18, 4-(3-(2-cyclopropyl-4-(3-(trifluoromethyl)-1H-pyrrolo[2,3-b]pyridin-5-yl)-1H-imidazol-1-yl)bicyclo[1.1.1]pentan-1-yl)morpholine], the half-inhibitory concentration (IC50) on human DLK [1] amounted to 155 nM. Also, at human DLK [2], the Kd stood at 1.9 nM.

`C#CCN1CCN(C23CC(n4cc(-c5cnc(N)c(OC(F)(F)F)c5)nc4[C@H](O)C(C)C)(C2)C3)CC1` (single isomer, unassigned) [Example 9b]: the IC50 on human DLK [1] was determined as 684 nM.

As to `Nc1ncc(-c2cn(C34CC(N5CCOCC5)(C3)C4)c(C3CC3)n2)cc1OC(F)F` [Example 37, 5-(2-cyclopropyl-1-(3-morpholinobicyclo[1.1.1]pentan-1-yl)-1H-imidazol-4-yl)-3-(difluoromethoxy)pyridin-2-amine], the IC50 at human DLK [1] was determined as 351 nM. Besides, on human DLK [2], the dissociation constant (Kd) stood at 19 nM.

Regarding `Nc1ncc(-c2cn(C34CC(N5CCOCC5)(C3)C4)c([C@@H](O)C(F)(F)F)n2)cc1OC(F)(F)F` (single isomer, unassigned) [Example 8b], the IC50 on human DLK [1] came to 284 nM.

As for `CCCN1CCN(C23CC(n4cc(-c5cnc(N)c(OC(F)(F)F)c5)nc4C(O)C(C)C)(C2)C3)CC1` (stereo not drawn) [Example 70, 1-(4-(6-amino-5-(trifluoromethoxy)pyridin-3-yl)-1-(3-(4-propylpiperazin-1-yl)bicyclo[1.1.1]pentan-1-yl)-1H-imidazol-2-yl)-2-methylpropan-1-ol], at human DLK [1], the IC50 was 923 nM.

Regarding `Nc1ncc(-c2cn(C34CC(N5CCOCC5)(C3)C4)c(C3CCOC3)n2)cc1OC(F)(F)F` (stereo not drawn) [Example 30, 5-(1-(3-morpholinobicyclo[1.1.1]pentan-1-yl)-2-(tetrahydrofuran-3-yl)-1H-imidazol-4-yl)-3-(trifluoromethoxy)pyridin-2-amine], the IC50 on human DLK [1] came out at 5110 nM. Moreover, at human DLK [2], the equilibrium dissociation constant (Kd) turned out to be 390 nM.

Consider `CC(C)C(O)c1nc(-c2cnc(N)c(C(F)(F)F)c2)cn1C12CC(C1)C2` (stereo not drawn) [Example 59, 1-(4-(6-amino-5-(trifluoromethyl)pyridin-3-yl)-1-(bicyclo[1.1.1]pentan-1-yl)-1H-imidazol-2-yl)-2-methylpropan-1-ol], for which the half-maximal inhibitory concentration (IC50) at human DLK [1] came to 20.9 nM. In addition, the dissociation constant Kd at human DLK [2] came to 0.29 nM.

In the case of `CC(C)c1nc(-c2cnc(N)c(OC(F)F)c2)cn1C12CC(N3CCOCC3)(C1)C2` [Example 38, 3-(difluoromethoxy)-5-(2-isopropyl-1-(3-morpholinobicyclo[1.1.1]pentan-1-yl)-1H-imidazol-4-yl)pyridin-2-amine], at human DLK [1], the IC50 turned out to be 709 nM. Further, the Kd at human DLK [2] stood at 19 nM.

On to `Nc1ncc(-c2cn(C34CC(N5CCN(CCF)CC5)(C3)C4)c(C3CC3)n2)cc1OC(F)(F)F` [Example 17, 5-(2-cyclopropyl-1-(3-(4-(2-fluoroethyl)piperazin-1-yl)bicyclo[1.1.1]pentan-1-yl)-1H-imidazol-4-yl)-3-(trifluoromethoxy)pyridin-2-amine], for which the IC50 at human DLK [1] was found to be 281 nM. The dissociation constant (Kd) at human DLK [2] came to 6.9 nM.

Turning to `Nc1ncc(-c2cn(C34CC(N5CCOCC5)(C3)C4)c(C3CCCC3)n2)cc1OC(F)(F)F` [Example 44, 5-(2-cyclopentyl-1-(3-morpholinobicyclo[1.1.1]pentan-1-yl)-1H-imidazol-4-yl)-3-(trifluoromethoxy)pyridin-2-amine], the concentration for half-maximal inhibition (IC50) at human DLK [1] was found to be 841 nM. Also, the dissociation constant (Kd) on human DLK [2] is 53 nM.

Turning to `CN1CCN(C23CC(n4cc(-c5cnc(N)c(OC(F)F)c5)nc4CC4CC4)(C2)C3)CC1` [Example 73, 5-(2-(cyclopropylmethyl)-1-(3-(4-methylpiperazin-1-yl)bicyclo[1.1.1]pentan-1-yl)-1H-imidazol-4-yl)-3-(difluoromethoxy)pyridin-2-amine], the half-inhibitory concentration (IC50) at human DLK [1] came to 624 nM. Moreover, the Kd on human DLK [2] was 18 nM.

Consider `COCCN(C)C12CC(n3cc(-c4cnc(N)c(OC(F)(F)F)c4)nc3C3CC3)(C1)C2` [Example 24, 5-(2-cyclopropyl-1-(3-((2-methoxyethyl)(methyl)amino)bicyo[1.1.1]pentan-1-yl)-1H-imidazol-4-yl)-3-(trifluoromethoxy)pyridin-2-amine], for which the IC50 on human DLK [1] turned out to be 553 nM. Besides, the Kd at human DLK [2] came out at 6.8 nM.

As for `CCC(C)c1nc(-c2cnc(N)c(OC(F)(F)F)c2)cn1C12CC(N3CCOCC3)(C1)C2` (stereo not drawn) [Example 49, 5-(2-(sec-butyl)-1-(3-morpholinobicyclo[1.1.1]pentan-1-yl)-1H-imidazol-4-yl)-3-(trifluoromethoxy)pyridin-2-amine], the IC50 at human DLK [1] turned out to be 290 nM. On human DLK [2], the Kd worked out at 8.6 nM.

Take `Nc1ncc(-c2cn(C34CC(N5CCS(=O)(=O)CC5)(C3)C4)c(C3CC3)n2)cc1OC(F)(F)F` [Example 13, 4-(3-(4-(6-amino-5-(trifluoromethoxy)pyridin-3-yl)-2-cyclopropyl-1H-imidazol-1-yl)bicyclo[1.1.1]pentan-1-yl)thiomorpholine 1,1-dioxide]: on human DLK [1], the half-inhibitory concentration (IC50) came to 317 nM. Moreover, at human DLK [2], the dissociation constant (Kd) stood at 32 nM.

Consider `COCCN(CCOC)C12CC(n3cc(-c4cnc(N)c(OC(F)(F)F)c4)nc3C3CC3)(C1)C2` [Example 25, 5-(1-(3-(bis(2-methoxyethyl)amino)bicyclo[1.1.1]pentan-1-yl)-2-cyclopropyl-1H-imidazol-4-yl)-3-(trifluoromethoxy)pyridin-2-amine], for which the concentration for half-maximal inhibition (IC50) on human DLK [1] was determined as 389 nM. Besides, the Kd on human DLK [2] was determined as 6.4 nM.

With `N#CC1(c2nc(-c3cnc(N)c(OC(F)(F)F)c3)cn2C23CC(N4CCOCC4)(C2)C3)CC1` [Example 29, 1-(4-(6-amino-5-(trifluoromethoxy)pyridin-3-yl)-1-(3-morpholinobicyclo[1.1.1]pentan-1-yl)-1H-imidazol-2-yl)cyclopropane-1-carbonitrile], the half-inhibitory concentration (IC50) at human DLK [1] came to 531 nM. Further, on human DLK [2], the Kd was 20 nM.

Consider `C#CCN1CCN(C23CC(n4cc(-c5cnc(N)c(OC(F)(F)F)c5)nc4[C@@H](O)C(C)C)(C2)C3)CC1` (single isomer, unassigned) [Example 9a], for which, on human DLK [1], the IC50 turned out to be 20.2 nM.

On to `CN1CCN(C23CC(n4cc(-c5cnc(N)c(C(F)(F)F)c5)nc4C4CC4)(C2)C3)CC1` [Example 75, 5-(2-cyclopropyl-1-(3-(4-methylpiperazin-1-yl)bicyclo[1.1.1]pentan-1-yl)-1H-imidazol-4-yl)-3-(trifluoromethyl)pyridin-2-amine], for which, at human DLK [1], the IC50 amounted to 256 nM. Moreover, the Kd at human DLK [2] is 7.5 nM.

Take `CCC(C)c1nc(-c2cnc(N)c(OC(F)F)c2)cn1C12CC(N3CCOCC3)(C1)C2` (stereo not drawn) [Example 51, 5-(2-(sec-butyl)-1-(3-morpholinobicyclo[1.1.1]pentan-1-yl)-1H-imidazol-4-yl)-3-(difluoromethoxy)pyridin-2-amine]: the IC50 at human DLK [1] was 763 nM. Moreover, the dissociation constant (Kd) at human DLK [2] was determined as 21 nM.

Take `Nc1ncc(-c2cn(C34CC(C3)C4)c(C(O)C3CC3)n2)cc1OC(F)(F)F` (stereo not drawn) [Example 56, (4-(6-amino-5-(trifluoromethoxy)pyridin-3-yl)-1-(bicyclo[1.1.1]pentan-1-yl)-1H-imidazol-2-yl)(cyclopropyl)methanol]: at human DLK [1], the IC50 was determined as 275 nM. For the same compound, the Kd on human DLK [2] was determined as 5.1 nM.

For `Nc1ncc(-c2cn(C34CC(N5CCOCC5)(C3)C4)c(C(O)C(F)(F)F)n2)cc1C(F)(F)F` (single isomer, unassigned) [Example 69a, 1-(4-(6-amino-5-(trifluoromethyl)pyridin-3-yl)-1-(3-morpholinobicyclo[1.1.1]pentan-1-yl)-1H-imidazol-2-yl)-2,2,2-trifluoroethan-1-ol], the half-maximal inhibitory concentration (IC50) at human DLK [1] stood at 36.7 nM. Further, the Kd at human DLK [2] turned out to be 0.36 nM.

`Nc1ncc(-c2cn(C34CC(C3)C4)c(C(O)C(F)(F)F)n2)cc1OC(F)(F)F` (stereo not drawn) [Example 63b, 1-(4-(6-amino-5-(trifluoromethoxy)pyridin-3-yl)-1-(bicyclo[1.1.1]pentan-1-yl)-1H-imidazol-2-yl)-2,2,2-trifluoroethan-1-ol]: the dissociation constant Kd at human DLK [2] was 1.6 nM.

On to `Nc1ncc(-c2cn(C34CC(N5CCOCC5)(C3)C4)c(C(O)C(F)(F)F)n2)cc1C(F)(F)F` (single isomer, unassigned) [Example 69b, 1-(4-(6-amino-5-(trifluoromethyl)pyridin-3-yl)-1-(3-morpholinobicyclo[1.1.1]pentan-1-yl)-1H-imidazol-2-yl)-2,2,2-trifluoroethan-1-ol], for which the half-inhibitory concentration (IC50) on human DLK [1] was 722 nM.

By IC50 is commonly meant the point on the concentration scale where inhibition reaches its midpoint. As usually defined, the Kd is a measure of binding affinity in units of concentration.

Source of the values: patent US10093664B2, “Bicyclo[1.1.1]pentane inhibitors of dual leucine zipper (DLK) kinase for the treatment of disease” (priority 2016, dated 2018).
